Reference: PubChem BioAssay (NCI)
“And” between values parts separate entries of the source, which are not always exact repeats. Equal entries are not always repeated.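 Interpolation was linear, between the two tested concentrations surrounding the appropriate level; five concentrations were tested over 48 hours in 96-well plates. GI50 = concentration required for 50% inhibition of growth. TGI marks complete inhibition of growth.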 Where a SMILES comes first, the peptide text is derived from it. The star is where a group is joined. Cbz = O=C(OCc1ccccc1)*; Boc = CC(C)(C)OC(=O)*; tBu = CC(C)(C)*

Key:
Assay in all cases: growth of human tumour cells (NCI), 48 h
SK-MEL-5 melanoma = tested on: SK-MEL-5 melanoma
SNB-19 CNS = tested on: SNB-19 CNS
SW-620 colon = tested on: SW-620 colon
UO-31 renal = tested on: UO-31 renal
SF-268 CNS = tested on: SF-268 CNS
HCT-116 colon = tested on: HCT-116 colon
LOX IMVI melanoma = tested on: LOX IMVI melanoma
MALME-3M melanoma = tested on: MALME-3M melanoma
A549 NSCLC = tested on: A549 NSCLC
A498 renal = tested on: A498 renal
COLO 205 colon = tested on: COLO 205 colon
SK-OV-3 ovarian = tested on: SK-OV-3 ovarian
BT-549 breast = tested on: BT-549 breast
HS 578T breast = tested on: HS 578T breast

## C=CCc1cc(-c2cc(CC=C)c(O)c(CNCCCl)c2)cc(CNCCCl)c1O
SK-MEL-5 melanoma
  TGI: 28.6 µM
SNB-19 CNS
  TGI: > 100 µM
SW-620 colon
  TGI: 44.3 µM
UO-31 renal
  TGI: 28.6 µM
SF-268 CNS
  TGI: 60.5 µM
HCT-116 colon
  TGI: 34.6 µM
LOX IMVI melanoma
  TGI: 31.6 µM
MALME-3M melanoma
  TGI: 39.5 µM
A549 NSCLC
  TGI: 76.1 µM
A498 renal
  TGI: 52.3 µM
COLO 205 colon
  TGI: 32.1 µM

## CC(C)Oc1ccc2c(c1)OCC1Cc3ccccc3OC21 (stereo not given)
SK-MEL-5 melanoma
  TGI: 47.5 µM
SK-OV-3 ovarian
  TGI: > 100 µM
SW-620 colon
  TGI: > 100 µM
UO-31 renal
  TGI: > 100 µM
SF-268 CNS
  TGI: > 100 µM
HCT-116 colon
  TGI: > 100 µM
LOX IMVI melanoma
  TGI: > 100 µM
MALME-3M melanoma
  TGI: > 100 µM
A549 NSCLC
  TGI: > 100 µM
A498 renal
  TGI: > 100 µM
BT-549 breast
  TGI: > 100 µM

## Cn1c(=O)c2[nH]c(CCCCC(=O)O)nc2n(C)c1=O
SK-MEL-5 melanoma
  TGI: > 100 µM
SNB-19 CNS
  TGI: > 100 µM
SW-620 colon
  TGI: > 100 µM
UO-31 renal
  TGI: > 100 µM
SF-268 CNS
  TGI: > 100 µM
HCT-116 colon
  TGI: > 100 µM
LOX IMVI melanoma
  TGI: > 100 µM
MALME-3M melanoma
  TGI: > 100 µM
A549 NSCLC
  TGI: > 100 µM
A498 renal
  TGI: > 100 µM
HS 578T breast
  TGI: > 100 µM
BT-549 breast
  TGI: > 100 µM

## c1csc(-c2cc(-c3cccs3)c(-c3ccsc3)s2)c1
SK-MEL-5 melanoma
  TGI: > 100 µM
SNB-19 CNS
  TGI: > 100 µM
SK-OV-3 ovarian
  TGI: > 100 µM
SW-620 colon
  TGI: > 100 µM
UO-31 renal
  TGI: > 100 µM
SF-268 CNS
  TGI: > 100 µM
HCT-116 colon
  TGI: > 100 µM
LOX IMVI melanoma
  TGI: > 100 µM
MALME-3M melanoma
  TGI: > 100 µM
A549 NSCLC
  TGI: > 100 µM
A498 renal
  TGI: > 100 µM
HS 578T breast
  TGI: > 100 µM
COLO 205 colon
  TGI: > 100 µM

## O=C1CCCC2(c3ccccc3)Nc3ccccc3N12 (stereo not given)
SK-MEL-5 melanoma
  TGI: > 100 µM
SNB-19 CNS
  TGI: > 100 µM
SK-OV-3 ovarian
  TGI: > 100 µM
SW-620 colon
  TGI: > 100 µM
UO-31 renal
  TGI: > 100 µM
SF-268 CNS
  TGI: > 100 µM
HCT-116 colon
  TGI: > 100 µM
LOX IMVI melanoma
  TGI: > 100 µM
MALME-3M melanoma
  TGI: > 100 µM
A549 NSCLC
  TGI: > 100 µM
HS 578T breast
  TGI: > 100 µM
COLO 205 colon
  TGI: > 100 µM
BT-549 breast
  TGI: > 100 µM

## CCc1c(C)c(C#N)c(=S)n(C2OC(COC(C)=O)C(OC(C)=O)C(OC(C)=O)C2OC(C)=O)c1C (stereo not given)
SK-MEL-5 melanoma
  TGI: > 100 µM
SNB-19 CNS
  GI50: > 100 µM and 21.5 µM
  TGI: > 100 µM and 93 µM
SK-OV-3 ovarian
  GI50: 63.4 µM and 20.8 µM
  TGI: > 100 µM and 84.6 µM
SW-620 colon
  TGI: > 100 µM
UO-31 renal
  GI50: 11 µM and 3.57 µM
  TGI: 92.2 µM and 14.5 µM
SF-268 CNS
  TGI: > 100 µM
HCT-116 colon
  GI50: > 100 µM and 21.7 µM
  TGI: > 100 µM and 45.5 µM
LOX IMVI melanoma
  TGI: > 100 µM
MALME-3M melanoma
  TGI: > 100 µM
A549 NSCLC
  TGI: > 100 µM
A498 renal
  GI50: > 100 µM and 30.2 µM
  TGI: > 100 µM and 92.4 µM
COLO 205 colon
  TGI: > 100 µM

## COc1ccc(N2C(=O)c3cc(C)cnc3S2(=O)=O)cc1
SK-MEL-5 melanoma
  TGI: > 100 µM
SNB-19 CNS
  TGI: > 100 µM
SK-OV-3 ovarian
  TGI: > 100 µM
SW-620 colon
  TGI: > 100 µM
UO-31 renal
  TGI: > 100 µM
SF-268 CNS
  TGI: > 100 µM
HCT-116 colon
  TGI: > 100 µM
LOX IMVI melanoma
  TGI: > 100 µM
MALME-3M melanoma
  TGI: > 100 µM
A549 NSCLC
  TGI: > 100 µM
HS 578T breast
  TGI: > 100 µM
COLO 205 colon
  TGI: > 100 µM
BT-549 breast
  TGI: > 100 µM

## NNc1nncc2n[nH]nc12
SNB-19 CNS
  TGI: > 100 µM
SW-620 colon
  TGI: > 100 µM
UO-31 renal
  TGI: > 100 µM
SF-268 CNS
  TGI: > 100 µM
HCT-116 colon
  TGI: > 100 µM
A549 NSCLC
  TGI: > 100 µM
A498 renal
  TGI: > 100 µM
HS 578T breast
  TGI: > 100 µM
COLO 205 colon
  TGI: > 100 µM
BT-549 breast
  TGI: > 100 µM

## COc1cccc(/C=C2\C(=O)N(C(=O)c3ccc(NC(C)=O)cc3)N=C2C)c1
SK-MEL-5 melanoma
  TGI: > 100 µM
SNB-19 CNS
  TGI: > 100 µM
SW-620 colon
  TGI: > 100 µM
UO-31 renal
  TGI: > 100 µM
SF-268 CNS
  TGI: > 100 µM
HCT-116 colon
  TGI: > 100 µM
LOX IMVI melanoma
  TGI: > 100 µM
MALME-3M melanoma
  TGI: > 100 µM
A549 NSCLC
  TGI: > 100 µM
COLO 205 colon
  TGI: > 100 µM

## O=C(O)Cc1cc(O)c(CC(=O)O)cc1O
SK-MEL-5 melanoma
  TGI: > 100 µM
SNB-19 CNS
  TGI: > 100 µM
SW-620 colon
  TGI: > 100 µM
UO-31 renal
  TGI: > 100 µM
SF-268 CNS
  TGI: > 100 µM
HCT-116 colon
  TGI: > 100 µM
LOX IMVI melanoma
  TGI: > 100 µM
MALME-3M melanoma
  TGI: > 100 µM
A549 NSCLC
  TGI: > 100 µM
A498 renal
  TGI: > 100 µM
HS 578T breast
  TGI: > 100 µM
BT-549 breast
  TGI: > 100 µM

## O=C(Cc1ccccc1)N/N=C/c1ccccc1O
SK-MEL-5 melanoma
  TGI: 49.4 µM
SNB-19 CNS
  TGI: > 100 µM
SK-OV-3 ovarian
  TGI: > 100 µM
SW-620 colon
  TGI: > 100 µM
UO-31 renal
  TGI: 72.9 µM
SF-268 CNS
  TGI: > 100 µM
HCT-116 colon
  TGI: > 100 µM
LOX IMVI melanoma
  TGI: > 100 µM
MALME-3M melanoma
  TGI: 66.6 µM
A549 NSCLC
  TGI: > 100 µM
HS 578T breast
  TGI: > 100 µM
COLO 205 colon
  TGI: > 100 µM
BT-549 breast
  TGI: > 100 µM

## O=C1NCCCNCCCNCCCNC(=O)c2cccc1n2
SK-MEL-5 melanoma
  TGI: > 100 µM
SNB-19 CNS
  TGI: > 100 µM
SK-OV-3 ovarian
  TGI: > 100 µM
SW-620 colon
  TGI: > 100 µM
UO-31 renal
  TGI: > 100 µM
SF-268 CNS
  TGI: > 100 µM
HCT-116 colon
  TGI: > 100 µM
LOX IMVI melanoma
  TGI: > 100 µM
MALME-3M melanoma
  TGI: > 100 µM
A549 NSCLC
  TGI: > 100 µM
HS 578T breast
  TGI: > 100 µM
COLO 205 colon
  TGI: > 100 µM
BT-549 breast
  TGI: > 100 µM

## CCOC(=O)C(Cc1cn(S(=O)(=O)c2ccccc2)c2ccccc12)(NC(C)=O)C(=O)OCC
SK-MEL-5 melanoma
  TGI: 33.7 µM
SNB-19 CNS
  TGI: > 100 µM
SW-620 colon
  TGI: > 100 µM
UO-31 renal
  TGI: 55.8 µM
SF-268 CNS
  TGI: > 100 µM
HCT-116 colon
  TGI: 95.8 µM
MALME-3M melanoma
  TGI: > 100 µM
A549 NSCLC
  TGI: > 100 µM
COLO 205 colon
  TGI: 60.8 µM

## CC(OC(C)(C)C)C(NC(=O)C(CCCCNC(=O)OC(C)(C)C)NC(=O)C(Cc1c[nH]c2ccccc12)NC(=O)C(Cc1ccccc1)NC(=O)OCc1ccccc1)C(=O)NC(Cc1ccccc1)C(=O)O (stereo not given) (Cbz-FWK(Boc)T(tBu)F-OH; configuration not given here)
SK-MEL-5 melanoma
  TGI: 33.9 µM
SNB-19 CNS
  TGI: 52.8 µM
SK-OV-3 ovarian
  TGI: > 100 µM
SW-620 colon
  TGI: > 100 µM
UO-31 renal
  TGI: > 100 µM
SF-268 CNS
  TGI: > 100 µM
HCT-116 colon
  TGI: > 100 µM
LOX IMVI melanoma
  TGI: > 100 µM
MALME-3M melanoma
  TGI: > 100 µM
A549 NSCLC
  TGI: > 100 µM
A498 renal
  TGI: > 100 µM
HS 578T breast
  TGI: 44.4 µM
COLO 205 colon
  TGI: > 100 µM

## O=C1NC2OCC(O)C(O)C2O1 (stereo not given)
SK-MEL-5 melanoma
  TGI: > 100 µM
SNB-19 CNS
  TGI: > 100 µM
SK-OV-3 ovarian
  TGI: > 100 µM
SW-620 colon
  TGI: > 100 µM
UO-31 renal
  TGI: > 100 µM
SF-268 CNS
  TGI: > 100 µM
HCT-116 colon
  TGI: > 100 µM
LOX IMVI melanoma
  TGI: > 100 µM
MALME-3M melanoma
  TGI: > 100 µM
A549 NSCLC
  TGI: > 100 µM
A498 renal
  TGI: > 100 µM
COLO 205 colon
  TGI: > 100 µM

## Cc1ccc(-c2c3nc(c(-c4ccc(C)cc4)c4ccc([nH]4)c(-c4ccc(OCC5COC(C)(C)O5)cc4)c4nc(c(-c5ccc(C)cc5)c5ccc2[nH]5)C=C4)C=C3)cc1 (stereo not given)
SK-MEL-5 melanoma
  TGI: > 31.6 µM
SNB-19 CNS
  TGI: > 31.6 µM
SW-620 colon
  TGI: > 31.6 µM
UO-31 renal
  TGI: > 31.6 µM
SF-268 CNS
  TGI: > 31.6 µM
HCT-116 colon
  TGI: > 31.6 µM
LOX IMVI melanoma
  TGI: > 31.6 µM
MALME-3M melanoma
  TGI: > 31.6 µM
A549 NSCLC
  TGI: > 31.6 µM
HS 578T breast
  TGI: > 100 µM
COLO 205 colon
  TGI: > 31.6 µM
BT-549 breast
  TGI: > 100 µM

## N#C/C(N)=C(\C#N)N=CN
SK-MEL-5 melanoma
  TGI: > 100 µM
SK-OV-3 ovarian
  TGI: > 100 µM
SW-620 colon
  TGI: > 100 µM
UO-31 renal
  TGI: > 100 µM
SF-268 CNS
  TGI: > 100 µM
HCT-116 colon
  TGI: > 100 µM
LOX IMVI melanoma
  TGI: > 100 µM
MALME-3M melanoma
  TGI: > 100 µM
A549 NSCLC
  TGI: > 100 µM
HS 578T breast
  TGI: > 100 µM
COLO 205 colon
  TGI: > 100 µM
